The subject of data set [1] is HUVEC. The data set can be described thus: Antiangiogenic activity in fibronectin pretreated HUVEC assessed as reduction in cell adhesion at 10 uM after 90 mins by DAPI staining based microscopic method. It counts as functional. To be noted: Homo sapiens.
Data set [2] deals with HUVEC. Nature of the data set: Anti-invasive activity in HUVEC at 10 uM after 24 hrs by DAPI staining based Boyden chamber method. The data set is classed as functional, cell-based. To be noted: Homo sapiens.
Data set [3] concerns HUVEC. The data set can be described thus: Antiangiogenic activity in HUVEC assessed as inhibition of cell morphogenesis by measuring reduction in capillary like structure formation at 10 uM after 6 hrs by inverted microscopic method. It counts as functional, cell-based. The conditions noted are these: Homo sapiens.
In data set [4] the test system is HUVEC. Nature of the data set: Antimigratory activity in HUVEC at 10 uM after 6 hrs by DAPI staining based Boyden chamber method. The data set is classed as functional, cell-based. The conditions noted are these: Homo sapiens.
For data set [5], the system named is HUVEC. Nature of the data set: Cytotoxicity against HUVEC assessed as reduction in cell viability at 20 uM up to 96 hrs by MTT assay. It counts as cell-based. To be noted: human. On the technique in general: Tetrazolium assays rely on reduction of a dye to a coloured formazan, in cell work by metabolically active cells.
In data set [6] the test system is HUVEC. The data set can be described thus: Cytotoxicity against HUVEC assessed as induction of apoptosis at 10 uM after 24 hrs by Annexin V/7-AAD staining based flow cytometry. The data set is classed as cell-based. The conditions noted are these: human. (In flow cytometry, cells or beads pass a laser one at a time.)
Data set [7] concerns HUVEC. The data set can be described thus: Cytotoxicity against HUVEC assessed as reduction in cell viability up to 20 uM up to 96 hrs by MTT assay. It counts as cell-based. To be noted: human.
The test system of data set [8] is HUVEC. Nature of the data set: Cytotoxicity against HUVEC assessed as reduction in cell viability at 10 uM after 96 hrs by MTT assay. The data set is classed as cell-based. The conditions noted are these: human.

Active and inactive are the calls of the source. No cut-off for these calls is given here.

For the compound `COc1ccc(/C=C/C(=O)c2c(OC)cc(O)c(CC=C(C)C)c2O)c(F)c1`, the outcome in the data set with HUVEC [1] and in the data set with HUVEC [4] was Active. The result in the data set on HUVEC [2] was inactive. In addition, the “Antiangiogenic activity (active/not active)” value in the data set on HUVEC [3] is “Active”. The Activity result with HUVEC [5] was “Toxic”.

Regarding `COc1cc(O)c(CC=C(C)C)c(O)c1C(=O)/C=C/c1ccc(F)cc1`, the result with HUVEC [1] and in the data set on HUVEC [4] was Active. The outcome in the data set on HUVEC [2] was inactive. In the data set with HUVEC [3], the “Antiangiogenic activity (active/not active)” value was “Active”.

Turning to `COCOc1cc(OC)c(C(=O)/C=C/c2ccc([N+](=O)[O-])cc2)c(O)c1CC=C(C)C`, the outcome with HUVEC [1] and with HUVEC [4] was Active. Further, the Activity result in the data set with HUVEC [6] and in the data set with HUVEC [5] was “Toxic” each time. In the data set on HUVEC [2], the outcome was inactive. Also, the “Antiangiogenic activity (active/not active)” value in the data set with HUVEC [3] was “Active”.

`COCOc1cc(OC)c(C(=O)/C=C/c2ccccc2F)c(O)c1CC=C(C)C`: in the data set with HUVEC [1], the outcome was Active. Also, the “Antiangiogenic activity (active/not active)” value with HUVEC [3] is “Active”.

On to `COCOc1cc(OC)c(C(=O)/C=C/c2ccc(F)cc2)c(O)c1CC=C(C)C`, for which the outcome with HUVEC [2] was inactive. The result with HUVEC [4] was Active.

`COCOc1cc(OC)c(C(=O)/C=C/c2ccc(OC)c(F)c2)c(O)c1CC=C(C)C`: the result in the data set with HUVEC [1] and with HUVEC [4] was Active. Also, in the data set with HUVEC [2], the result was inactive. For the same compound, the “Antiangiogenic activity (active/not active)” value in the data set with HUVEC [3] was “Active”.

Turning to `COCOc1cc(OC)c(C(=O)/C=C/c2ccc(OC)cc2F)c(O)c1CC=C(C)C`, the result with HUVEC [1] was Active. The Activity entry in the data set on HUVEC [7] is listed as “Non-Toxic”. Besides, in the data set with HUVEC [2], the result was inactive. For the same compound, the “Antiangiogenic activity (active/not active)” value with HUVEC [3] was “Active”.

Turning to `COc1cc(O)c(CC=C(C)C)c(O)c1C(=O)/C=C/c1ccc(O)cc1` [XANTHOHUMOL], the outcome in the data set with HUVEC [1], with HUVEC [2] and with HUVEC [4] was Active. The “Antiangiogenic activity (active/not active)” value in the data set with HUVEC [3] is “Active”. The Activity entry with HUVEC [5] was “Toxic”.

In the case of `COc1cc(O)c(CC=C(C)C)c(O)c1C(=O)/C=C/c1ccccc1F`, the outcome with HUVEC [1] was Active. In the data set on HUVEC [3], the “Antiangiogenic activity (active/not active)” value was “Active”.

In the case of `COCOc1cc(OC)c(C(=O)/C=C/c2ccc(OC)c(F)c2)c(OCOC)c1CC=C(C)C`, the outcome in the data set with HUVEC [1] and in the data set with HUVEC [4] was Active. For the same compound, the result with HUVEC [2] was inactive. Also, the “Antiangiogenic activity (active/not active)” value in the data set on HUVEC [3] is “Active”. The Activity result in the data set with HUVEC [8] was “Toxic”.

On to `COc1ccc(/C=C/C(=O)c2c(OC)cc(O)c(CC=C(C)C)c2O)cc1F`, for which the result in the data set on HUVEC [1] and with HUVEC [4] was Active. In addition, the result in the data set with HUVEC [2] was inactive. The “Antiangiogenic activity (active/not active)” value in the data set on HUVEC [3] was “Active”.

`COCOc1cc(OC)c(C(=O)/C=C/c2ccc(OC)cc2F)c(OCOC)c1CC=C(C)C`: the result with HUVEC [1] and in the data set on HUVEC [4] was Active. For the same compound, the result in the data set on HUVEC [2] was inactive. In the data set on HUVEC [3], the “Antiangiogenic activity (active/not active)” value was “Active”. Further, the Activity entry in the data set with HUVEC [8] is recorded as “Toxic”.

These data come from ChEMBL document CHEMBL4190290, “Synthesis and antiangiogenic activity study of new hop chalcone Xanthohumol analogues” (Eur J Med Chem, 2017).
